How the values were obtained:
[1] = system: U87MG, U251, and T98G cells; experiment: Autophagy: acidic vesicular organelle (AVO) staining; assay type: cell-based, human; settings: vosaroxin at IC20 for each cell line added to RT 4 Gy; 24 hours
Source text: As a marker of autophagy we evaluated the presence of AVOs after staining of cell cultures with LysoTracker® Red DND-99 kit (Life Technologies Italia, Monza, Italy) according to the manufacturer’s instructions. The intensity of the red fluorescence is proportional to the degree of acidity. The percentage of autophagic cells was quantified with the Tali® Image-Based Cytometer (Life Technologies) measuring fluorescence emission at 590 nm with fluorescence excitation at 577 nm. The results were expressed as the percentage of cell AVOs stained in controls and in treated cultures.

beclin-1 = experiment: Beclin-1 expression (Western blot and ELISA); assay type: cell-based, human; settings: after vosaroxin treatment at IC20; U87MG, U251, T98G
Protocol: Cells grown in 90 mm diameter Petri dishes were treated and at various timepoints were washed with cold phosphate-buffered saline (PBS) and immediately lysed with 1 mL radioimmunoprecipitation assay (RIPA) buffer containing protease and phosphatase inhibitor cocktail. Total lysates were electrophoresed in SDS-PAGE (7%), and separated proteins transferred to nitrocellulose and probed with the appropriate antibodies using the conditions recommended by the suppliers. Protein levels in total extracts were normalized to actin. After appropriate treatments, tumor cell cultures and tissues were harvested for analysis of cytokine expression. Cell pellets were washed with PBS and lysed with RIPA buffer. Cell lysates and conditioned media were assayed by ELISA to measure (i) active human caspase-3 (CBA045, Merck Chemicals Ltd., Nottingham, UK), (ii) beclin-1 (E98557Hu, USCN Life Sciences, Houston, TX, USA), and (iii) DNA damage (EpiQuik in situ DNA Damage Assay Kit, Epigentek, Farmingdale, NY, USA).

U87MG xenografts = experiment: Subcutaneous xenograft model: tumor weight and time to progression; assay type: in vivo, female CD1-nu/nu mice; settings: for HR (95% CI) for tumor progression: U87MG
Protocol: (§1) Female CD1-nu/nu mice, at 6 weeks of age, were purchased from Charles River (Milan, Italy) under the guidelines established by our institution (University of L’Aquila, Medical School and Science and Technology School Board Regulations, complying with Italian government regulation n.116, January 27, 1992, for the use of laboratory animals). All mice received subcutaneous flank injections (2 each) of 1 × 10^6 U251, U87MG, and T98G cells representing models for MGMT-negative and MGMT-positive cells. Tumor growth was assessed biweekly by measuring tumor diameters with a Vernier caliper (length × width). Tumor weight was calculated according to the formula tumor weight (mg) = tumor volume (mm^3) = d2 × D/2, where d and D are the shortest and longest diameters, respectively. The effects of the treatments were assessed as previously described. At about 10 days after the tumor injection, 30 mice with tumor volumes of 0.5–0.8 cm^3 were randomly divided into 6 groups (5 mice per group with 2 tumors each): (1) control (vehicle); (2) vosaroxin (10 mg/kg every 5 days for 5 weeks intravenous [IV] injection into tail vein; (3) radiotherapy (RT; 4 Gy delivered in a single fraction); (4) vosaroxin in combination with RT; (5) temozolomide (16 mg/kg 5 consecutive days) and (6) temozolomide in combination with RT. Anesthetized tumor-bearing mice received focal irradiation. Irradiation was delivered using an x-ray linear accelerator at a dose rate of 200 cGy/min at room temperature. All mice were shielded with a specially designed lead apparatus to allow irradiation to the right hind limb. At the end of the study (35 days after the start of treatments), animals were sacrificed by carbon dioxide inhalation and tumors were then removed surgically. Half of the tumor was directly frozen in liquid nitrogen for protein analysis and the other half was fixed in paraformaldehyde overnight for immunohistochemical analyses.
(§2) The following parameters were used to quantify the antitumor effects of different treatments as previously described: tumor volume, measured throughout the experiment; tumor weight, measured at the end of the experiment; tumor progression, defined as an increase of greater than 50% of tumor volume with respect to baseline; and time to progression (TTP), defined as the time until tumor progression was observed from baseline. Tumor size was measured with calipers and the TTP of a single tumor was calculated. TTP data were used to generate Kaplan-Meier curves for progression. This method of analysis was described previously, and may reduce both inter-subject variability resulting from differences in engraftment efficacy as well as intra-subject variability in response.
(§3) In vivo drug combination studies were evaluated using CalcuSyn. For CI calculations of dual administration, the values of % cell kill (%CK) for a fixed tumor volume were determined by the log CK (LCK). LCK was calculated as LCK = (T − C) / (3.32 × Td), where Td represented the mean control group doubling time required to reach a fixed tumor volume, expressed in days. T and C were the mean times in days required to reach the same fixed tumor volume in the treated group and the control group, respectively. CK was calculated as %CK = [1 − (1 − 10LCK)] × 100. Tumor growth delay (TGD) was calculated as %TGD = [(T − C) / C] × 100, where T and C were the same values as those reported by Bruzzese et al..

T98G xenografts = experiment: as above; assay type: in vivo, female CD1-nu/nu mice; settings: for HR (95% CI) for tumor progression: T98G
Protocol: as §1, §2, §3

U251 xenografts = experiment: as above; assay type: in vivo, female CD1-nu/nu mice; settings: for HR (95% CI) for tumor progression: U251
Protocol: as §1, §2, §3

CN[C@H]1CN(c2ccc3c(=O)c(C(=O)O)cn(-c4nccs4)c3n2)C[C@@H]1OC [vosaroxin]
RT-induced AVO staining [1]: reduced
RT-induced levels of beclin-1 (beclin-1): significantly reduced
final tumor weight reduction compared with vehicle controls (U87MG xenografts; U87MG xenografts, day 35, VSR 10 mg/kg q 5 d for 5 wk IV, TMZ 16 mg/kg 5 consecutive days, RT single 4 Gy): 44%
HR (95% CI) for tumor progression (U87MG xenografts; VSR vs TMZ + RT): 0.8 (0.3–2.0)
HR (95% CI) for tumor progression (U87MG xenografts; VSR vs TMZ): 0.6 (0.2–1.5)
HR (95% CI) for tumor progression (U87MG xenografts; VSR vs VSR + RT): 4.3 (1.2–15.6)
final tumor weight reduction compared with vehicle controls (T98G xenografts; T98G xenografts, day 35, VSR 10 mg/kg q 5 d for 5 wk IV, TMZ 16 mg/kg 5 consecutive days, RT single 4 Gy): 60%
HR (95% CI) for tumor progression (T98G xenografts; VSR vs TMZ + RT): 1.0 (0.4–2.4)
HR (95% CI) for tumor progression (T98G xenografts; VSR vs TMZ): 0.5 (0.2–1.3)
HR (95% CI) for tumor progression (T98G xenografts; VSR vs VSR + RT): 4.7 (1.5–14.6)
final tumor weight reduction compared with vehicle controls (U251 xenografts; U251 xenografts, day 35, VSR 10 mg/kg q 5 d for 5 wk IV, TMZ 16 mg/kg 5 consecutive days, RT single 4 Gy): 42%
HR (95% CI) for tumor progression (U251 xenografts; VSR vs TMZ + RT): 4.2 (1.4–12.5)
HR (95% CI) for tumor progression (U251 xenografts; VSR vs TMZ): 0.6 (0.3–1.6)
HR (95% CI) for tumor progression (U251 xenografts; VSR vs VSR + RT): 4.0 (1.3–12.1)
